Laboratory results reported in paper PMC8476055, “Synthesis and Biological Activity of Triterpene–Coumarin Conjugates” (Journal of Natural Products, 2021).

Tests used:
[1] = system: IEC-18 normal rat ileum cells; assay: MTT assay, nontumor IEC-18 cells; assay type: cell-based; settings: Rattus norvegicus, IEC-18; MTT, untreated control = 100% viability; read-out: IC50, growth inhibition of IEC-18 non-tumor cells
Description: (§1) Only MA conjugates 7 and 10 were selected to compare the growth inhibitory effects in the three nontumor cell lines (HPF, IEC-18, and WRL68) versus the three cancer cell lines (B16–F10, HT29, and Hep G2). Therefore, the cytotoxic effects on B16–F10 murine melanoma cells were compared with those of HPF normal human epithelial lung fibroblasts, with similar tissue. Similarly, the cytotoxic effects of these conjugates on HT29 colon cancer cells and Hep G2 hepatoma cells were compared with those of nontumor cells of the same tissue, such as IEC-18 normal rat ileum cells and WRL68 normal human embryo liver cells, respectively.
(§2) […] ATTC HTB-38), Hep G2 human hepatocyte carcinoma cells (ECACC 85011430), nontumor human epithelial lung fibroblast cells HPF (ScienCell catalog (cat.) no. 3300), nontumor rat ileum cells IEC-18 (ECACC no. 88011801), and nontumor human embryo liver cells (ECACC 89121403) were cultured in DMEM medium supplemented with 2 mM glutamine, 10% heat-inactivated fetal bovine serum (FCS), 10.000 units/mL penicillin, and […]. These cells were incubated at 37 °C in an atmosphere of 5% CO2 and 95% humidity. The culture media were changed every 48 h, and the confluent cultures were separated with a trypsin solution (0.25% EDTA). Subconfluent monolayer cells were used in all experiments. All cell lines used were provided by the cell bank of the University of Granada (Spain).
(§3) The effect of the synthesized compounds on the viability of tumor cells was assessed using an MTT assay, based on the ability of living cells to cleave the tetrazolium ring, thus producing formazan, which absorbs at 570 nm. The MA conjugates (1–12) were assayed against the selected cancer cell lines. For an evaluation of the cytotoxic effects of these compounds, the cells were seeded in 96-well plates at an initial density of 5 × 10^3 B16–F10 cells, 6 × 10^3 HT29 cells, 15 × 10^3 Hep G2 cells, 8 × 10^3 HPF cells, 15 × 10^3 IEC-18 cells, and 11 × 10^3 WRL68 cells, per well. After incubation for 24 h, the cells were treated with the synthesized compounds in triplicate, at different concentrations (0–200 μg/mL), and incubated for 72 h. Thereafter, 100 μL of MTT solution (0.5 mg/mL) were added to each well. After 2 h of incubation, the cells were washed twice with phosphate buffered saline (PBS), and the formazan was resuspended in 100 μL of DMSO. Relative cell viability, with respect to untreated control cells, was measured by absorbance at 550 nm on an ELISA plate reader (Tecan Sunrise MR20-301, TECAN, Austria). […] These experiments were measured and compared to the control after 72 h of treatment.

[2] = MTT assay, nontumor IEC-18 cells; assay type: cell-based, rat; settings: rat, IEC-18 normal ileum cells; at the compound's IC50 concentration for HT29 cancer cells
Description: as §1, §2, §3

[3] = MTT assay, statements over the three nontumor cell lines; assay type: cell-based; settings: human, rat, at the IC50 concentration of the respective cancer cell line; over HPF, IEC-18, WRL68; read-out: cell viability percentage of nontumor cells
Description: as §1
The effect of the synthesized compounds on the viability of tumor cells was assessed using an MTT assay, based on the ability of living cells to cleave the tetrazolium ring, thus producing formazan, which absorbs at 570 nm. The MA conjugates (1–12) were assayed against the selected cancer cell lines. […] Relative cell viability, with respect to untreated control cells, was measured by absorbance at 550 nm on an ELISA plate reader (Tecan Sunrise MR20-301, TECAN, Austria). […] These experiments were measured and compared to the control after 72 h of treatment.

[4] = MTT assay, nontumor HPF cells; assay type: cell-based, human; settings: human, HPF normal lung fibroblast cells; at the compound's IC50 concentration for B16–F10 cancer cells; read-out: percent viability (% viability) of HPF cells
Description: as §1, §2, §3

[5] = system: HPF normal human epithelial lung fibroblasts; assay: MTT assay, nontumor HPF cells; assay type: cell-based; settings: Homo sapiens, Fibroblast; MTT, untreated control = 100% viability; read-out: IC50, growth inhibition of HPF non-tumor cells
Description: as §1, §2, §3

[6] = MTT assay, nontumor WRL68 cells; assay type: cell-based, human; settings: human, WRL68 normal embryo liver cells; at the compound's IC50 concentration for Hep G2 cancer cells
Description: as §1, §2, §3

[7] = system: WRL68 normal human embryo liver cells; assay: MTT assay, nontumor WRL68 cells; assay type: cell-based; settings: Homo sapiens, WRL68; MTT, untreated control = 100% viability; read-out: IC50, growth inhibition of WRL68 non-tumor cells
Description: as §1, §2, §3

`CC1(C)CC[C@]2(C(=O)NCCCNC(=O)/C=C/c3ccc(O)cc3)CC[C@]3(C)C(=CC[C@@H]4[C@@]5(C)C[C@@H](O)[C@H](O)C(C)(C)[C@@H]5CC[C@]43C)[C@@H]2C1` [Compound 7, 2α,3β-Dihydroxy-N-(3′-((E)-3″-(4‴-hydroxyphenyl)acrylamido)propyl)olean-12-en-28-amide] showed an IC50 [1] of 19.6 ± 0.3 µM, a viability at 72 h [2] of 88 ± 0.6% and a viability at 72 h [3] of 61 to 88%. For the same molecule, the viability at 72 h [4] was 76.9 ± 2.9%, the IC50 [5] was 38.8 ± 1.3 µM and the viability at 72 h [6] was 61.4 ± 1.3%. It also gave an IC50 [7] of 16.3 ± 0.9 µM.
With `CC1(C)CC[C@]2(C(=O)O)CC[C@]3(C)C(=CC[C@@H]4[C@@]5(C)C[C@@H](OC(=O)c6cc7ccccc7oc6=O)[C@H](OC(=O)c6cc7ccccc7oc6=O)C(C)(C)[C@@H]5CC[C@]43C)[C@@H]2C1` [Compound 10] the IC50 [1] was 7.4 ± 0.7 µM, the viability at 72 h [2] was 89.3 ± 2.2% and the viability at 72 h [3] was 90%. The viability at 72 h [4] was 92.9 ± 2.9%, the IC50 [5] was 24.5 ± 1.9 µM and the viability at 72 h [6] was 87.4 ± 1.7%. The IC50 [7] was 6.2 µM.
